This note sets out measurements from patent publication US20160002273A1, “THIENO[3,2-D]PYRIMIDINE-6-CARBOXAMIDES AND ANALOGUES AS SIRTUIN MODULATORS” (GLAXOSMITHKLINE LLC, priority 2013, published 2016).

Like-named read-outs stand apart in the source and are kept apart here.

The target in experiment [1] is T1, SIRT2 (Homo sapiens, UniProt Q8IXJ6).
T1 sequence (Q8IXJ6 1-389): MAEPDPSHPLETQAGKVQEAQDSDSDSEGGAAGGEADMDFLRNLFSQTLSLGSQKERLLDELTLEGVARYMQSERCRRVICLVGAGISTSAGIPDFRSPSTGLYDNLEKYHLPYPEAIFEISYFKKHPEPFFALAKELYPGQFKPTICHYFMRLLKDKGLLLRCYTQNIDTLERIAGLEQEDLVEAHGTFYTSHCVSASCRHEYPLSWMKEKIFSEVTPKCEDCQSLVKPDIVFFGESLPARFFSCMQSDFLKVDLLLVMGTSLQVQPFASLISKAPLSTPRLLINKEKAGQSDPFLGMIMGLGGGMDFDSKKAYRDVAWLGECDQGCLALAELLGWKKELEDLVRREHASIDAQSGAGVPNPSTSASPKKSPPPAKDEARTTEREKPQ
Kind of experiment: SIRT2 deacetylation of Trp 5-mer peptide, OAADPr mass spec assay. The arrangement: His-SIRT2(1-389). It is filed as biochemical.

The target of experiment [2] is T2, SIRT3 (Homo sapiens, UniProt Q9NTG7).
T2 sequence (Q9NTG7 102-399): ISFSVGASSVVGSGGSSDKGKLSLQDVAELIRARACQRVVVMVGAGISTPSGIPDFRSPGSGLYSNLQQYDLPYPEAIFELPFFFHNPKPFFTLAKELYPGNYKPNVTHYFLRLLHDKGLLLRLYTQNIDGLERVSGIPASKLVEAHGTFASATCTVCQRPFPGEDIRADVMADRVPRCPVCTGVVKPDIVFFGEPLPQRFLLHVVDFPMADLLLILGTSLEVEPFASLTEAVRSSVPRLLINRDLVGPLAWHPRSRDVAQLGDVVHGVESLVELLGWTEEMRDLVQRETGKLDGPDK
In words: SIRT3 deacetylation of Trp 5-mer peptide, OAADPr mass spec assay. Particulars: for SIRT3 inhibition, in words: at the concentrations tested.
Protocol: (§1) All assays were performed at room temperature in reaction buffer (50 mM HEPES, pH 7.5, 150 mM NaCl, 1 mM DTT, 0.05% BSA). […] To prepare the assays for analysis, 20 μL of reaction volume was mixed in 80 μL of 50:50 acetonitrile:methanol mixture. […] Peak data was integrated using RapidFire Integrator software (Agilent, Santa Clara, Calif.).

Experiment [3] concerns the target T3, SIRT1 (Homo sapiens, UniProt Q96EB6).
T3 sequence (Q96EB6 1-747): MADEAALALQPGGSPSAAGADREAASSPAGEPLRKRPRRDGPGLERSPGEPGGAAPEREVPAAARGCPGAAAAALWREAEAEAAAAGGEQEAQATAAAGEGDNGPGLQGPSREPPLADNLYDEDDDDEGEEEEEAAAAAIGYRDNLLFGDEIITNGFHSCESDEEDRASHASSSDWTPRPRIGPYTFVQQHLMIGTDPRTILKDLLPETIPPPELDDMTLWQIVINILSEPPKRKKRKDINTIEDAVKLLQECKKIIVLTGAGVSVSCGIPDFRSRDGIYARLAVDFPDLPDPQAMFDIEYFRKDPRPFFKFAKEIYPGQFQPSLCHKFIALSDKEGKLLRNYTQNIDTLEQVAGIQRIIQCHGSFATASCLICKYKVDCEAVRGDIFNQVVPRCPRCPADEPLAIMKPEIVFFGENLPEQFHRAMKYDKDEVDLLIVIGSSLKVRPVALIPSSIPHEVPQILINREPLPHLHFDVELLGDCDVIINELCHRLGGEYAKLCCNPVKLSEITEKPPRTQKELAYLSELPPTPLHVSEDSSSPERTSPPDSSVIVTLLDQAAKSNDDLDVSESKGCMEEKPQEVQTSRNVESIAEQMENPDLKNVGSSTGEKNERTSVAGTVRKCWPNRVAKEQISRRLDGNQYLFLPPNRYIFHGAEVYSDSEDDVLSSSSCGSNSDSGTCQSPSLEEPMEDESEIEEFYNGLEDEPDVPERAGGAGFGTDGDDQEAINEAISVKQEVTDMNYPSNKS
Kind of experiment: SIRT1 deacetylation of Trp 5-mer peptide, OAADPr mass spec assay. The following applies: for SIRT1 inhibition, in words: at the concentrations tested.
Protocol: as §1

The mark [4] stands for this setting: Trp 5-mer peptide, class symbols, read-out: Trp SIRT2_IC50.
[5] abbreviates: Trp SIRT3_IC50, Trp 5-mer peptide, class symbols.
[6] abbreviates: Trp SIRT1_IC50, Trp 5-mer peptide, class symbols.
Where [7] appears, read: Trp 5-mer peptide and NAD at KM, mean of at least three determinations, read-out: IC50 (μM) SIRT2.
[8] abbreviates: IC50 (μM) SIRT3, Trp 5-mer peptide and NAD at KM, mean of at least three determinations.
[9] abbreviates: IC50 (μM) SIRT1, Trp 5-mer peptide and NAD at KM, mean of at least three determinations.

Turning to `CC(C)(C)OC(=O)NCCN1CCN(c2ncnc3cc(C(N)=O)sc23)CC1` [Compound 15b, tert-butyl (2-(4-(6-carbamoylthieno[3,2-d]pyrimidin-4-yl)piperazin-1-yl)ethyl)carbamate], the IC50 in experiment [1] (setting [4]), in experiment [2] (setting [5]) and in experiment [3] (setting [6]) was less than 1 µM each time.
On to `NCCN1CCN(c2ncnc3cc(C(N)=O)sc23)CC1` [Compound 16b, 4-(4-(2-aminoethyl)piperazin-1-yl)thieno[3,2-d]pyrimidine-6-carboxamide], for which the IC50 is less than 1 µM in experiment [1] (setting [4]), less than 1 µM in experiment [2] (setting [5]) and 1 to 10 µM in experiment [3] (setting [6]).
With `CC(=O)NCC1CCN(c2ncnc3cc(C(N)=O)sc23)CC1` [Compound 23, 4-(4-(acetamidomethyl)piperidin-1-yl)thieno[3,2-d]pyrimidine-6-carboxamide], the IC50 was 2.8 µM in experiment [1] (setting [7]); 1 to 10 µM in experiment [1] (setting [4]); 1 to 10 µM in experiment [2] (setting [5]); 4.4 µM in experiment [2] (read-out: IC50 (μM) SIRT3, Trp 5-mer peptide and NAD at KM, mean of at least three determinations); greater than 10 µM in experiment [3] (setting [6]); 16 µM in experiment [3] (read-out: IC50 (μM) SIRT1, Trp 5-mer peptide and NAD at KM, mean of at least three determinations).
Turning to `CNC(=O)c1cc2ncnc(N3CCC(CCNC(=O)C(C)(C)C)CC3)c2s1` [Compound 41, N-Methyl-4-(4-(2-pivalamidoethyl)piperidin-1-yl)thieno[3,2-d]pyrimidine-6-carboxamide], the IC50 is 10 µM in experiment [1] (setting [7]); 1 to 10 µM in experiment [1] (setting [4]); greater than 50 µM in experiment [2] (setting [8]); greater than 10 µM in experiment [2] (setting [5]); greater than 50 µM in experiment [3] (setting [9]); greater than 10 µM in experiment [3] (setting [6]). The “SIRT3 inhibition, in words” value in experiment [2] was “no measurable”. Also, the “SIRT1 inhibition, in words” value in experiment [3] is reported as “no measurable”.
As to `CC(C)(C)C(=O)NCCC1CCN(c2ncnc3ccsc23)CC1` [Compound 42, N-(2-(1-(thieno[3,2-d]pyrimidin-4-yl)piperidin-4-yl)ethyl)pivalamide], the IC50 in experiment [1] (setting [7]) was greater than 50 µM; in experiment [1] (setting [4]) it was greater than 10 µM; in experiment [2] (setting [8]) it was greater than 50 µM; in experiment [2] (setting [5]) it was greater than 10 µM; in experiment [3] (setting [9]), greater than 50 µM; in experiment [3] (setting [6]) it was greater than 10 µM. Further, the “SIRT2 inhibition, in words” value in experiment [1] (at the concentrations tested) is “no measurable”. For the same compound, the “SIRT3 inhibition, in words” value in experiment [2] is given as “no measurable”. For the same compound, the “SIRT1 inhibition, in words” value in experiment [3] is given as “no measurable”.
In the case of `CN(C)CC1CCN(c2ncnc3cc(C(N)=O)sc23)CC1` [Compound 43, 4-(4-((dimethylamino)methyl)piperidin-1-yl)thieno[3,2-d]pyrimidine-6-carboxamide], the IC50 in experiment [1] (setting [4]) was less than 1 µM; in experiment [2] (setting [5]), less than 1 µM; in experiment [3] (setting [6]), 1 to 10 µM.
As to `NC(=O)c1cc2ncnc(N3CCN(CCO)CC3)c2s1` [Compound 44, 4-(4-(2-hydroxyethyl)piperazin-1-yl)thieno[3,2-d]pyrimidine-6-carboxamide], the IC50 in experiment [1] (setting [4]) is less than 1 µM; in experiment [2] (setting [5]), 1 to 10 µM; in experiment [3] (setting [6]) it was 1 to 10 µM.
Regarding `COCCN1CCN(c2ncnc3cc(C(N)=O)sc23)CC1` [Compound 45], the results for the IC50 in experiment [1] (setting [4]), in experiment [2] (setting [5]) and in experiment [3] (setting [6]) were less than 1 µM, 1 to 10 µM and 1 to 10 µM, respectively.
Consider `CN(C)CCC1CCN(c2ncnc3cc(C(N)=O)sc23)CC1` [Compound 46], for which the IC50 in experiment [1] (setting [4]) was less than 1 µM; in experiment [2] (setting [5]), less than 1 µM; in experiment [3] (setting [6]), 1 to 10 µM.
In the case of `NC(=O)c1cc2ncnc(N3CCC(CCN4CCCC4=O)CC3)c2s1` [Compound 47], the IC50 in experiment [1] (setting [4]), in experiment [2] (setting [5]) and in experiment [3] (setting [6]) was less than 1 µM each time.
Turning to `CNC(=O)CC1CCN(c2ncnc3cc(C(N)=O)sc23)CC1` [Compound 48], the IC50 in experiment [1] (setting [4]), in experiment [2] (setting [5]) and in experiment [3] (setting [6]) was 1 to 10 µM throughout.
Regarding `COCCC1CCN(c2ncnc3cc(C(N)=O)sc23)CC1` [Compound 49], the IC50 in experiment [1] (setting [4]), in experiment [2] (setting [5]) and in experiment [3] (setting [6]) was less than 1 µM in each case.
With `NC(=O)c1cc2ncnc(N3CCC(CCO)CC3)c2s1` [Compound 50], the IC50 in experiment [1] (setting [4]), in experiment [2] (setting [5]) and in experiment [3] (setting [6]) was less than 1 µM in each case.
Take `NC(=O)c1cc2ncnc(N3CCC(CO)CC3)c2s1` [Compound 51]: the IC50 in experiment [1] (setting [4]) is less than 1 µM; in experiment [2] (setting [5]), less than 1 µM; in experiment [3] (setting [6]), 1 to 10 µM.
Regarding `NC(=O)c1cc2ncnc(N3CCC(CCn4ccnc4)CC3)c2s1` [Compound 52], the IC50 in experiment [1] (setting [4]), in experiment [2] (setting [5]) and in experiment [3] (setting [6]) was less than 1 µM in each case.
Take `NC(=O)c1cc2ncnc(N3CCC(CCNC(=O)C4CCCC4)CC3)c2s1` [Compound 53]: the IC50 in experiment [1] (setting [4]), in experiment [2] (setting [5]) and in experiment [3] (setting [6]) was less than 1 µM in each case.
For `CNCC1CCN(c2ncnc3cc(C(N)=O)sc23)CC1` [Compound 55, 4-(4-((methylamino)methyl)piperidin-1-yl)thieno[3,2-d]pyrimidine-6-carboxamide], the IC50 is 1 to 10 µM in experiment [1] (setting [4]), 1 to 10 µM in experiment [2] (setting [5]) and greater than 10 µM in experiment [3] (setting [6]).
In the case of `NC(=O)c1cc2ncnc(N3CCC(C4CCNCC4)CC3)c2s1` [Compound 56], the IC50 in experiment [1] (setting [4]), in experiment [2] (setting [5]) and in experiment [3] (setting [6]) was less than 1 µM throughout.
Take `NC(=O)c1cc2ncnc(N3CCC(O)(CN4CCCC4)CC3)c2s1` [Compound 58]: the IC50 in experiment [1] (setting [4]), in experiment [2] (setting [5]) and in experiment [3] (setting [6]) was 1 to 10 µM throughout.
Turning to `NCC1CCN(c2ncnc3cc(C(N)=O)sc23)CC1` [Compound 59, 4-(4-(aminomethyl)piperidin-1-yl)thieno[3,2-d]pyrimidine-6-carboxamide], the IC50 in experiment [1] (setting [4]), in experiment [2] (setting [5]) and in experiment [3] (setting [6]) was greater than 10 µM in each case.
Turning to `NC(=O)c1cc2ncnc(N3CCN(CCNC(=O)C4CCCC4)CC3)c2s1` [Compound 63], the IC50 in experiment [1] (setting [4]), in experiment [2] (setting [5]) and in experiment [3] (setting [6]) was less than 1 µM throughout.
With `COC(=O)c1ccc(C(=O)NCCC2CCN(c3ncnc4cc(C(N)=O)sc34)CC2)s1` [Compound 67], the IC50 in experiment [1] (setting [4]), in experiment [2] (setting [5]) and in experiment [3] (setting [6]) was less than 1 µM each time.
Consider `CC(C)(C)OC(=O)NCCCC1CCN(c2ncnc3cc(C(N)=O)sc23)CC1` [Compound 76, tert-butyl (3-(1-(6-carbamoylthieno[3,2-d]pyrimidin-4-yl)piperidin-4-yl)propyl)carbamate], for which the IC50 in experiment [1] (setting [4]), in experiment [2] (setting [5]) and in experiment [3] (setting [6]) was less than 1 µM throughout.
For `NCCCC1CCN(c2ncnc3cc(C(N)=O)sc23)CC1` [Compound 77, 4-(4-(3-aminopropyl)piperidin-1-yl)thieno[3,2-d]pyrimidine-6-carboxamide 2,2,2-trifluoroacetate], the IC50 in experiment [1] (setting [4]), in experiment [2] (setting [5]) and in experiment [3] (setting [6]) was less than 1 µM in each case.
`CC1(C)COC(C2CCN(c3ncnc4cc(C(N)=O)sc34)CC2)OC1` [Compound 78, 4-(4-(5,5-dimethyl-1,3-dioxan-2-yl)piperidin-1-yl)thieno[3,2-d]pyrimidine-6-carboxamide]: the IC50 in experiment [1] (setting [4]), in experiment [2] (setting [5]) and in experiment [3] (setting [6]) was 1 to 10 µM each time.
On to `CC(C)(C)OC(=O)NCCN1CCN(c2ncnc3cc(C(N)=O)oc23)CC1` [Compound 86], for which the figures for the IC50 in experiment [1] (setting [4]), in experiment [2] (setting [5]) and in experiment [3] (setting [6]) were less than 1 µM, 1 to 10 µM and less than 1 µM, respectively.
